# Assays:
# [1] = molecular target: T1, CXCR3 (Homo sapiens, UniProt P49682); assay: NanoBRET screen HiBiT-CXCR3 in HEK293; type: binding
# T1 construct: purchased Promega (in-house HiBiT-GPCR construct library, NanoBRET)
# T1 sequence (P49682 1-368): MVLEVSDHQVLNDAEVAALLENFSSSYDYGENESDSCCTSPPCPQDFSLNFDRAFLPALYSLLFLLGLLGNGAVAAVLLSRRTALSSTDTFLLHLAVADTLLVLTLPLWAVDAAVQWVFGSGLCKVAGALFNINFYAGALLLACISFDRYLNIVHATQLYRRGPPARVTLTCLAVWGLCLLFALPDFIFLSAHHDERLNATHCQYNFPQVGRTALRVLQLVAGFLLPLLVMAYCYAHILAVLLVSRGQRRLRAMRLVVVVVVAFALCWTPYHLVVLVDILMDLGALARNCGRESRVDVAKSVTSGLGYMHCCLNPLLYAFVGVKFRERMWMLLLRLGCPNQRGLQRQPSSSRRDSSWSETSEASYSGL
# Description: (§1) Each tracer candidate was screened across the entire library of HiBiT-GPCR constructs using NanoBRET as the detection modality. As depicted in Figure 4A, the specificity of interactions was evaluated through decrease in BRET due to competitive displacement of a bound tracer by excess parental compound. Each tracer was analyzed for binding to each HiBiT-GPCR fusion in the absence and in the presence of competing parental compound. Briefly, HEK293 cells were transfected with HiBiT-GPCR constructs diluted into promoterless DNA to reduce expression and maximize translocation to the cell surface. Each tracer candidate was then screened at concentrations of 1 μM and 0.1 μM across cells expressing these fusions. Cells were treated for 1.5 h with tracer either alone or in the presence of 20 μM competing parental compound (i.e., control). BRET was measured upon addition of purified LgBiT and subsequent complementation with HiBiT genetically fused to a GPCR. The specificity of interactions was assessed through a decrease in BRET signal due to competitive displacement of the bound tracer. To further gauge the robustness of these interactions, the fold response over the control (i.e., BRETtracer/BRETcontrol) was calculated. We chose a 1.5-fold response, which translates to ≥7-fold signal over noise as the minimal threshold required to score an interaction as positive. […]. Below we highlight the screening results obtained for our exemplary fluorescent tracers based on Clozapine, Amitriptyline and AZD1283.
# (§2) HiBiT-GPCR DNA constructs were diluted in 10 mM Tris pH 8 to a final concentration of 0.01 μg/μL, arrayed in 96-well plates and stored at −20 °C. For transfection, HEK293 cells were suspended in Opti-MEM (without phenol red) supplemented with 2% fetal bovine serum (Seradigm) and 100 units/mL penicillin–streptomycin (Gibco) at a final concentration of 220,000 cells/mL and dispensed into white 96-well plates at 90 μL/well. Subsequent transfections and screens were carried using an Agilent Bravo Automated Liquid Handling Platform. First, the 96-well HiBiT DNA arrays were diluted 25-fold in Opti-MEM (without serum or phenol red) to a final concentration of 0.0004 μg/μL and 20 μL of the diluted DNAs were transferred into new 96-well plates. Next, promoterless carrier DNA (1 μg/μL) was diluted 25-fold (0.04 μg/μL) and then dispensed into the diluted arrays at 20 μL/well. Following brief mixing, Viafect transfection reagent (Promega) diluted 16-fold into Opti-MEM was dispensed into the plates at 40 μL/well. After mixing by pipetting, plates were incubated for 10 min on the pipetting station deck. The DNA-transfection reagent complexes were then added to plates containing cells. To facilitate the screen, 10 μL of DNA-transfection reagent complexes were added in duplicates to the top 4 and bottom 4 rows, resulting in two identical 48-well arrays per plate. Plates with transfected cells were incubated for 18–20 h at 37 °C/5% CO2. A screen of each tracer across the entire library using two different concentrations requires duplicate plates of transfected cells. Depending on the number of tracers being screened, transfections can be scaled up using the same ratios. The next day, for each tracer, four 20× screening solutions in tracer dilution buffer (Promega) were prepared: two duplicates at final concentration of 20 μM and two duplicates at a final concentration of 2 μM. A competing unmodified compound was added to one of each duplicate at a final concentration of 400 μM. The four resulting solutions were diluted 4-fold in Opti-MEM without serum or phenol red to generate 5× solutions (5 µM and 0.5 µM tracer +/− 100 μM competing compound). To screen the library, a BioTek MultiFlo FX liquid dispenser was used to dispense 22.5 µL of tracer solution to the top 4 rows and 22.5 µL tracer + competing compound solution to the 4 bottom rows. Plates were briefly mixed on an orbital shaker and incubated for 1.5 h at room temperature. […]
# [2] = molecular target: T2, CXCR5 (Homo sapiens, UniProt P32302); assay: NanoBRET screen HiBiT-CXCR5 in HEK293; type: binding
# T2 construct: purchased Promega (in-house HiBiT-GPCR construct library, NanoBRET)
# T2 sequence (P32302 1-372): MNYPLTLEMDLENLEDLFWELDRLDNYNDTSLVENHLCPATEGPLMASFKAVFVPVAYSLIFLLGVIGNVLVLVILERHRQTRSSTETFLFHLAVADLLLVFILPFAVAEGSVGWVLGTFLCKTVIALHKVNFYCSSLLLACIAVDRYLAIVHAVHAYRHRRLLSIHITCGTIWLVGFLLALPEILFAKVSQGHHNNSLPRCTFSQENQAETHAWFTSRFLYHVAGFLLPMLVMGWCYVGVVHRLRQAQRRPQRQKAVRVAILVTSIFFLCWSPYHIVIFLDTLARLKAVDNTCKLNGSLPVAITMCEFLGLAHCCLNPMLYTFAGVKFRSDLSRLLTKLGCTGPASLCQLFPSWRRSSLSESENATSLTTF
# Description: as §1, §2
Structure (SMILES),"NanoBRET Fold Response ([1]; CXCR3, tracer 0.1μM)","NanoBRET Fold Response ([1]; CXCR3, tracer 1μM)","NanoBRET Fold Response ([2]; CXCR5, tracer 0.1μM)","NanoBRET Fold Response ([2]; CXCR5, tracer 1μM)",further results
O=C(CCc1ccc2n1[B-](F)(F)[N+]1=C(c3ccc[nH]3)C=CC1=C2)NCc1ccc(C(=O)NCCOCCC(=O)N[C@@H]2CC[C@@]3(O)[C@H]4Cc5ccc(O)c6c5[C@@]3(CCN4CC3CC3)[C@H]2O6)cc1 [Naltrexone-3-NB590],1.39,0.78,0.57,0.57,–
CN1CCN(C2=Nc3cc(Cl)ccc3N(CC(=O)NCCOCCOCCOCCOCCNC(=O)CCc3ccc4n3[B-](F)(F)[N+]3=C(c5ccc[nH]5)C=CC3=C4)c3ccccc32)CC1 [Clozapine-c-2-NB590],–,–,–,–,"NanoBRET Fold Response ([1]; CXCR3, 0.1μM tracer): 1.01; NanoBRET Fold Response ([1]; CXCR3, 1μM tracer): 0.76; NanoBRET Fold Response ([2]; CXCR5, 0.1μM tracer): 0.98; NanoBRET Fold Response ([2]; CXCR5, 1μM tracer): 0.98"
O=C(CCOCCOCCOCCOCCNC(=O)CCc1ccc2n1[B-](F)(F)[N+]1=C(c3ccc[nH]3)C=CC1=C2)NCCCN1CCN(C2=Nc3cc(Cl)ccc3Nc3ccccc32)CC1 [Clozapine-a-2-NB590],–,–,–,–,"NanoBRET Fold Response ([1]; CXCR3, 0.1μM tracer): 1.02; NanoBRET Fold Response ([1]; CXCR3, 1μM tracer): 1.22; NanoBRET Fold Response ([2]; CXCR5, 0.1μM tracer): 1.06; NanoBRET Fold Response ([2]; CXCR5, 1μM tracer): 1.01"
CCOC(=O)c1cc(C#N)c(N2CCC(C(=O)NS(=O)(=O)Cc3ccccc3/C=C/C(=O)NCCNC(=O)CCc3ccc4n3[B-](F)(F)[N+]3=C(c5ccc[nH]5)C=CC3=C4)CC2)nc1C [AZD1283-1-NB590],–,–,–,–,"NanoBRET Fold Response ([1]; CXCR3, 0.1μM): 0.98; NanoBRET Fold Response ([1]; CXCR3, 1μM): 1.17; NanoBRET Fold Response ([2]; CXCR5, 0.1μM): 1.04; NanoBRET Fold Response ([2]; CXCR5, 1μM): 1.12"
COc1ccc2[nH]c(-c3ccc(CNC(=O)CCOCCOCCOCCOCCNC(=O)CCc4ccc5n4[B-](F)(F)[N+]4=C(c6ccc[nH]6)C=CC4=C5)cc3)c(CCNC(C)=O)c2n1 [AzomelatoninICO9-2-NB590],–,–,–,–,NanoBRET Fold Response ([1]; 0.1μM tracer): 0.79; NanoBRET Fold Response ([1]; 1μM tracer): 0.91; NanoBRET Fold Response ([2]; 0.1μM tracer): 1.36; NanoBRET Fold Response ([2]; 1μM tracer): 0.90
CCCn1c(=O)c2[nH]c(-c3ccc(OCC(=O)NCCNC(=O)CCOCCNC(=O)c4ccc(CNC(=O)CCc5ccc6n5[B-](F)(F)[N+]5=C(c7ccc[nH]7)C=CC5=C6)cc4)cc3)nc2n(CCC)c1=O [XAC-3-NB590],0.93,1.60,1.23,0.87,–
COc1ccccc1N1CCN(CCCCN2C(=O)c3ccc(CNC(=O)CCOCCNC(=O)c4ccc(CNC(=O)CCc5ccc6n5[B-](F)(F)[N+]5=C(c7ccc[nH]7)C=CC5=C6)cc4)cc3C2=O)CC1 [NAN-190-3-NB590],0.97,1.01,1.37,0.68,–
CN(CCC=C1c2ccccc2CCc2ccccc21)C(=O)CCOCCOCCOCCOCCNC(=O)CCc1ccc2n1[B-](F)(F)[N+]1=C(c3ccc[nH]3)C=CC1=C2 [Amitriptyline-e-2-NB590],–,–,–,–,NanoBRET Fold Response ([1]; tracer at 1μM): 1.22; NanoBRET Fold Response ([2]; tracer at 1μM): 0.98
O=C(CCc1ccc2n1[B-](F)(F)[N+]1=C(c3ccc[nH]3)C=CC1=C2)NCc1ccc(C(=O)NCCOCCOCCNCC(O)COc2cccc3ccccc23)cc1 (stereo not shown) [Propranolol-3-NB590],–,–,–,–,"NanoBRET Fold Response ([1]; CXCR3, 0.1μM): 0.99; NanoBRET Fold Response ([1]; CXCR3, 1μM): 0.90; NanoBRET Fold Response ([2]; CXCR5, 0.1μM): 1.02; NanoBRET Fold Response ([2]; CXCR5, 1μM): 1.06"
COc1ccc2c(n1)c(CCNC(C)=O)cn2CCNC(=O)CCc1ccc2n1[B-](F)(F)[N+]1=C(c3ccc[nH]3)C=CC1=C2 [Azamelatonin-1-NB590],–,–,–,–,NanoBRET Fold Response ([1]; 0.1μM tracer): 1.19; NanoBRET Fold Response ([1]; 1μM tracer): 0.93; NanoBRET Fold Response ([2]; 0.1μM tracer): 0.93; NanoBRET Fold Response ([2]; 1μM tracer): 1.19
O=C(CCOCCOCCOCCOCCNC(=O)CCc1ccc2n1[B-](F)(F)[N+]1=C(c3ccc[nH]3)C=CC1=C2)NCCCN1CCN(C2=Nc3ccccc3Oc3ccc(Cl)cc32)CC1 [Loxapine-a-2-NB590],1.04,1.26,0.29,0.90,–
COc1ccccc1N1CCN(CCCCN2C(=O)c3ccc(CNC(=O)CCOCCOCCOCCOCCNC(=O)CCc4ccc5n4[B-](F)(F)[N+]4=C(c6ccc[nH]6)C=CC4=C5)cc3C2=O)CC1 [NAN-190-2-NB590],0.94,–,1.01,1.00,–
CC(C)N(CC[C@H](c1ccccc1)c1cc(CCNC(=O)c2ccc(CNC(=O)CCc3ccc4n3[B-](F)(F)[N+]3=C(c5ccc[nH]5)C=CC3=C4)cc2)ccc1O)C(C)C [Tolterodine-BZ-NB590],1.11,0.96,0.86,0.91,–
O=C(CCc1ccc2n1[B-](F)(F)[N+]1=C(c3ccc[nH]3)C=CC1=C2)NCCOCCOCCNC(=O)OCCOCCN1CCN(C2=Nc3ccccc3Sc3ccccc32)CC1 [Quetiapine-a-2-NB590],1.00,1.14,1.01,0.92,–
CN1CCN(C2=Nc3cc(Cl)ccc3Nc3ccc(CNC(=O)CCOCCOCCOCCOCCNC(=O)CCc4ccc5n4[B-](F)(F)[N+]4=C(c6ccc[nH]6)C=CC4=C5)cc32)CC1 [Clozapine-b-2-NB590],–,–,–,–,"NanoBRET Fold Response ([1]; CXCR3, 0.1μM tracer): 0.97; NanoBRET Fold Response ([1]; CXCR3, 1μM tracer): 0.94; NanoBRET Fold Response ([2]; CXCR5, 0.1μM tracer): 0.95; NanoBRET Fold Response ([2]; CXCR5, 1μM tracer): 1.02"
CC(C)N(CC[C@H](c1ccccc1)c1cc(CCNC(=O)CCOCCOCCOCCOCCNC(=O)CCc2ccc3n2[B-](F)(F)[N+]2=C(c4ccc[nH]4)C=CC2=C3)ccc1O)C(C)C [Tolterodine-2-NB590],1.87,1.01,1.31,1.00,–
